In patent publication US4742061A, “Benzoc[c]-1,5-naphthyridines and related compounds as memory enhancing agents” (priority 1986, dated 1988):

System: mice
Experiment: Dark Avoidance Assay (block of scopolamine-induced memory impairment in mice, 24 hours)
Assay type: in vivo
Protocol: In this assay mice are tested for their ability to remember an unpleasant stimulus for a period of 24 hours. A mouse is placed in a chamber than contains a dark compartment; a strong incandescent light drives it to the dark compartment, where an electric shock is administered through metal plates on the floor. The animal is removed from the testing apparatus and tested again, 24 hours later, for the ability to remember the electric shock.
If scopolamine, an anticholinergic agent that is known to cause memory impairment, is administered before an animal's initial exposure to the test chamber, the animal re-enters the dark compartment shortly after being placed in the test chamber 24 hours later. This effect of scopolamine is blocked by an active test compound, resulting in greater interval before re-entry into the dark compartment.
The results for an active compound are expressed as the percent of a group of animals in which the effect of scopolamine is blocked, as manifested by an increased interval between being placed in the test chamber and re-entering the dark compartment.

## c1ccc2c3c(ncc2c1)CCCN3 [1,2,3,4-Tetrahydrobenzo[c]-1,5-naphthyridine]
Dose 1.25 mg/kg of body weight
  % of Animals Greater than Scopolamine: 27%
Dose 2.5 mg/kg of body weight
  % of Animals Greater than Scopolamine: 25%

## CC[C@@H]1C(=O)OC[C@@H]1Cc1cncn1C [Pilocarpine]
Dose 5.0 mg/kg of body weight
  % of Animals Greater than Scopolamine: 13%

## Nc1c2c(nc3ccccc13)CCCC2 [Tacrine, 9-amino-1,2,3,4-tetrahydro-acridine]
Dose 0.63 mg/kg of body weight
  % of Animals Greater than Scopolamine: 13%
